The values that follow are results of earlier work, collected in paper PMC3249774 (Research in Pharmaceutical Sciences, 2011).

This data set relates to neuroblastoma cells. As to conditions: cells treated with DFO.

In the case of `CC(=O)N(O)CCCCCNC(=O)CCC(=O)N(O)CCCCCNC(=O)CCC(=O)N(O)CCCCCN` [DFO], the “Sensitivity of neuroblastoma cells relative to normal bone marrow cells” value is recorded as 10 fold.
